Reference: US9522910B2, “Protein kinase inhibitors (variants), use thereof in treating oncological diseases and a pharmaceutical composition based thereon” (Obshchestvo s ogranichennoy otvetstvennostyou “Fusion …, priority 2011, dated 2016)

Assays:
[1] = tested on: MV4-11 cells; test: Animal model of acute myelogenous leukemia (MV4-11 tumors in SCID mice); format: in vivo, mouse; conditions: 30 mg/kg; end of the therapy (20 days); ratio of mean tumor volume in therapeutic and control groups
Procedure: MV4-11 cells (1×10^7 in serum-free medium) were subcutaneously injected in right flank of SCID female mice. When tumor volume achieved ˜200 mm^3 mice were separated into two groups: control and therapeutic. Control group mice received 0.3 ml of 0.5% methylcellulose solution, therapeutic group received 0.3 ml of 0.5% methylcellulose with suspended therapeutic compound. Tumor volume (mm^3) was calculated as follows: V=L×W^2×0.5, where L—tumor length in mm, W—width in mm. Ratio of the mean tumor volume in therapeutic and control groups (% T/C) on the end of the therapy (20 days) was used to evaluate efficacy of tumor growth inhibition. Obtained data was subjected to statistical reliability Dunnet test. Efficacies of tested compounds in 30 mg/kg dose are depicted in Table 3.

[2] = tested on: Ba/F3 cells expressing either native or mutant (T315I) Bcr-Abl kinase; test: Animal model of chronic myelogenous leukemia (Ba/F3 Bcr-Abl tumors in nude balb/c mice); format: in vivo, mouse; conditions: 30 mg/kg, oral gavage once daily, 10 days; ratio of mean tumor volume in therapeutic and control groups
Procedure: Ba/F3 cells expressing either native or mutant (T315I) Bcr-Abl kinase, were inoculated in the right flank of nude balb/c mouse (100 μl of cell suspension in serum-free medium, 3×10^6 cells/ml). Mice were randomly assigned to the groups upon tumor volume of ˜500 mm^3. Once daily vehicle (0.5% methylcellulose I in water) was given using oral gavage to the control group, and substance suspension was given to therapeutic group during 10 days. In a typical experiment malignant cells (e.g., K562 cells, or Ba/F3 cells, expressing native of mutated Bcr-Abl kinase) are injected to mouse with reduced immunity (e.g. nude or SCID mice). Tumor volume (mm^3) was calculated as follows: V=L×W^2×0.5, where L—tumor length in mm, W—width in mm. Ratio of the mean tumor volume in therapeutic and control groups (% T/C) was used to evaluate efficacy of tumor growth inhibition. Obtained data was subjected to statistical reliability Dunnet test. Efficacies of tested compounds in 30 mg/kg dose are depicted in Table 2.

[3] = tested on: A549 cells; test: Animal model of non-small cell lung cancer (A549 tumors in nude mice); format: in vivo, mouse; conditions: 30 mg/kg, oral gavage; end of the therapy (20 days); ratio of mean tumor volume in therapeutic and control groups
Procedure: Male nude mice were used for this experiment. A549 cells (1×10^7) in 0.2 ml of Matrigel (BD Pharmingen) solution were injected in left mice leg upon ketamine-xylazine anesthesia. After a week of cell inoculation mice were separated into control and therapeutic groups. Control group mice received 0.3 ml of 0.5% methylcellulose solution, therapeutic group received 0.3 ml of 0.5% methylcellulose with suspended therapeutic compound (30 mg/kg). Tumor volume (mm^3) was calculated as follows: V=L×W^2×0.5. Compounds were administered using oral gavage. Treatment continued for 20 days. Ratio of the mean tumor volume in therapeutic and control groups (% T/C) was used to evaluate efficacy of tumor growth inhibition upon the end of the therapy (20 days). Obtained data was subjected to statistical reliability Dunnet test. Efficacies of tested compounds in 30 mg/kg dose are depicted in Table 5.

[4] = molecular target: Abl (Homo sapiens (Human), UniProt P00519); test: Kinase inhibition assay (33P transfer to plate-bound substrate), Abl; format: biochemical; conditions: compound concentration that causes 2-times reduction of kinase enzymatic activity
From the text: (§1) Kinases as either kinase domain or full construct fused to glutathione S-transferase (GST) or poly-Histidine tagged fusion proteins were expressed in baculovrius-infected insect cells (e.g. Sf21) or in E. Coli. They are purified to near homogeneity by affinity chromatography as previously described (Lehr et al., Production, purification and characterization of non-myristylated human T-cell protein tyrosine kinase in a baculovirus expression system, Gene, 1996; 169(2), 275-279; Gish et al., Bacterial expression, purification and preliminary kinetic description of the kinase domain of v-fps, Protein Eng. 8, 6, 609-614). In some instances, kinases are co-expressed or mixed with purified or partially purified regulatory polypeptides prior to measurement of activity.
(§2) Kinase activity and inhibition was measured by established protocols (see e.g. Braunwalder et al., A Solid-Phase Assay for the Determination of Protein Tyrosine Kinase Activity of c-src Using Scintillating Microtitration Plates, Anal Biochem. 234, 1, 23-26). In such cases, the transfer of ^33PO4 from ATP to the synthetic substrates poly(Glu, Tyr) 4:1 or poly(Arg, Ser) 3:1 attached to the bioactive surface of microtiter plates is taken as a measure of enzyme activity. After an incubation period, the amount of phosphate transferred is measured by first washing the plate with 0.5% phosphoric acid, adding liquid scintillant, and then counting in a liquid scintillation detector. The IC50 is determined by the concentration of compound that causes a 50% reduction in the amount of ^33P incorporated onto the substrate bound to the plate.

[5] = molecular target: Abl (T315I) (Homo sapiens (Human), UniProt P00519, T315I); test: Kinase inhibition assay (33P transfer to plate-bound substrate), Abl (T315I); format: biochemical; conditions: compound concentration that causes 2-times reduction of kinase enzymatic activity
From the text: as §1, §2

[6] = tested on: K562 human chronic myelogenous leukemia cells; test: Antiproliferative activity on K562 cells (MTT); format: cell-based; conditions: K562, 72 h, compound concentration that causes 2-times reduction of viable cells, 3 days
Procedure: Moreover, antiproliferative activity of the compounds of the present invention can be studied on K562 human chronic myelogenous leukemia cells.
Human myelogenous leukemia K562 cells K562 were cultivated in RPMI 1640 growth medium. K562 cells were transferred to 96-well plated in duplicated (final concentration 2×10^4 cells/ml) and testing compound solution in growth medium was added at different concentrations (final volume is 100 μl per well). Solid compounds were first dissolved in DMSO, then the solution was diluted with DMSO to necessary concentration, mixed with equal volume of growth medium and was transferred to cell plates. The final compound concentrations of compounds was 0.5 nM to 10 μM. DMSO at same percentage is used as control. After compound was incubated with cells for 3 days, the numbers of active cells are measured. It was achieved by removing old medium, addition of 100 μl of fresh medium and 20 μl MIT solution containing 5 mg/ml PBS. Plates was incubated for 2 h at 37° C., then 100 μl DMSO was added at each well and stirred for 1 min. Then the absorbance was measured at 570 nm and percent of proliferation inhibition related to the control (without testing compounds) was determined.

[7] = tested on: HCT116 cells; test: Animal model of solid intestine tumors (HCT116 tumors in SCID mice); format: in vivo, mouse; conditions: 30 mg/kg; end of the therapy (20 days); ratio of mean tumor volume in therapeutic and control groups
Procedure: 200 μl of HCT116 cells (2.5×10^7 cells/ml) were subcutaneously injected in right flank of SCID mice. When tumor volume achieved ˜200 mm^3 mice were randomized and separated into two groups: control and therapeutic. Control group mice received 0.3 ml of 0.5% methylcellulose solution, therapeutic group received 0.5% methylcellulose with suspended therapeutic compound (30 mg/kg). Twice a week animals animal weight, toxic effects and tumor volume were measured. Experiment was stopped upon tumor reached volume of 1200 mm3 of when animal lost 10% of body weight, or 20% of body weight upon 2 consecutive weightings. Ratio of the mean tumor volume in therapeutic and control groups (% T/C) was used to evaluate efficacy of tumor growth inhibition upon the end of the therapy (20 days). Obtained data was subjected to statistical reliability Dunnet test. Efficacies of tested compounds in 30 mg/kg dose are depicted in Table 4.

Cc1ccc(C(=O)Nc2ccc(CN3CCN(C)CC3)c(C(F)(F)F)c2)cc1C#Cc1nnc2ccccn12 [drawing 127]
% T/C [1]: <40%

Cc1ccc2nnc(C#Cc3cc(C(=O)Nc4ccc(CN5CCN(C)CC5)c(C(F)(F)F)c4)ccc3C)n2n1 [drawing 126]
% T/C [2]: <40%

Cc1ccc2nnc(C#Cc3cc(C(=O)Nc4ccc(CN5CCN(C)CC5)c(C(F)(F)F)c4)ccc3C)n2n1 [drawing 132]
% T/C [1]: <40%

Cc1ccc(C(=O)Nc2ccc(CN3CC[C@@H](N(C)C)C3)c(C(F)(F)F)n2)cc1C#Cn1cnc2ccccc21 [drawing 142]
% T/C [3]: <40%

CN1CCN(Cc2ccc(NC(=O)c3ccc(F)c(C#Cc4nnc5ccccn45)c3)cc2C(F)(F)F)CC1
IC50 [4]: < 0.02 µM
IC50 [5]: < 0.02 µM
IC50 [6]: < 0.1 µM

Cc1ccc(C(=O)Nc2ccc(CN3CCN(C)CC3)c(C(F)(F)F)c2)cc1C#Cc1nnc2cccc(Cl)n12 [drawing 134]
% T/C [7]: <40%

Cc1ccc(C(=O)Nc2ccc(CN3CCN(C)CC3)c(C(F)(F)F)c2)cc1C#Cc1nnc2cccc(Cl)n12 [drawing 122]
% T/C [2]: <40%

Cc1ccc(C(=O)Nc2ccc(CN3CCN(C)CC3)c(C(F)(F)F)c2)cc1C#Cc1nnc2ccccn12 [drawing 121]
% T/C [2]: <40%

Cc1ccc(C(=O)Nc2ccc(CN3CCN(C)CC3)c(C(F)(F)F)c2)cc1C#Cc1nnc2cc(C(=O)O)ccn12
IC50 [4]: < 0.02 µM
IC50 [5]: < 0.02 µM
IC50 [6]: < 0.1 µM

Cc1ccc(C(=O)Nc2ccc(CN3CCN(C)CC3)c(C(F)(F)F)c2)cc1C#Cc1nnc2cc(F)ccn12 [drawing 125]
% T/C [2]: <40%

Cc1ccc(C(=O)Nc2ccc(CN3CCN(C)CC3)c(C(F)(F)F)c2)cc1C#Cc1nnc2cccc(Cl)n12 [drawing 140]
% T/C [3]: <40%

Cc1ccc(C(=O)Nc2ccc(CN3CC[C@@H](N(C)C)C3)c(C(F)(F)F)c2)cc1C#Cn1cnc2ccccc21 [drawing 129]
% T/C [1]: <40%

Cc1ccc2nnc(C#Cc3cc(C(=O)Nc4ccc(CN5CCN(C)CC5)c(C(F)(F)F)c4)ccc3C)n2n1 [drawing 138]
% T/C [7]: <40%

Cc1ccc(C(=O)Nc2ccc(CN3CCN(C)CC3)c(C(F)(F)F)c2)cc1C#Cc1nnc2cccnn12
IC50 [4]: < 0.02 µM
IC50 [5]: < 0.02 µM
IC50 [6]: < 0.1 µM

Cc1ccc(C(=O)Nc2ccc(CN3CC[C@@H](N(C)C)C3)c(C(F)(F)F)n2)cc1C#Cn1cnc2ccccc21 [drawing 130]
% T/C [1]: <40%

Cc1ccc(C(=O)Nc2ccc(CN3CC[C@@H](N(C)C)C3)c(C(F)(F)F)c2)cc1C#Cn1cnc2ccccc21 [drawing 141]
% T/C [3]: <40%

Cc1ccc(C(=O)Nc2ccc(CN3CC[C@@H](N(C)C)C3)c(C(F)(F)F)c2)cc1C#Cn1cnc2ccccc21 [drawing 123]
% T/C [2]: <40%

Cc1ccc(C(=O)Nc2ccc(CN3CCN(C)CC3)c(C(F)(F)F)c2)cc1C#Cc1nnc2ccccn12 [drawing 139]
% T/C [3]: <40%

Cc1ccc(C(=O)Nc2ccc(CN3CCN(C)CC3)c(C(F)(F)F)c2)cc1C#Cc1nnc2cc(F)ccn12 [drawing 137]
% T/C [7]: <40%

Cc1ccc(C(=O)Nc2ccc(CN3CC[C@@H](N(C)C)C3)c(C(F)(F)F)n2)cc1C#Cn1cnc2ccccc21 [drawing 124]
% T/C [2]: <40%

Cc1ccc(C(=O)Nc2ccc(CN3CC[C@@H](N(C)C)C3)c(C(F)(F)F)c2)cc1C#Cn1cnc2ccccc21 [drawing 135]
% T/C [7]: <40%

Cc1ccc(C(=O)Nc2ccc(CN3CCN(C)CC3)c(C(F)(F)F)c2)cc1C#Cc1nnc2cc(C(=O)O)cnn12
IC50 [4]: < 0.02 µM
IC50 [5]: < 0.02 µM
IC50 [6]: < 0.1 µM

Cc1ccc(C(=O)Nc2ccc(CN3CCN(C)CC3)c(C(F)(F)F)c2)cc1C#Cc1nnc2ccccn12 [drawing 133]
% T/C [7]: <40%

Cc1ccc(C(=O)Nc2ccc(CN3CC[C@@H](N(C)C)C3)c(C(F)(F)F)n2)cc1C#Cn1cnc2ccccc21 [drawing 136]
% T/C [7]: <40%

Cc1ccc(C(=O)Nc2ccc(CN3CCN(C)CC3)c(C(F)(F)F)c2)cc1C#Cn1cnc2cc(C(=O)O)ccc21
IC50 [4]: < 0.02 µM
IC50 [5]: < 0.02 µM
IC50 [6]: < 0.1 µM

Cc1ccc(C(=O)Nc2ccc(CN3CCN(C)CC3)c(C(F)(F)F)c2)cc1C#Cc1nnc2cc(F)ccn12 [drawing 143]
% T/C [3]: <40%

Cc1ccc(C(=O)Nc2ccc(CN3CCN(C)CC3)c(C(F)(F)F)c2)cc1C#Cc1nnc2cc(C(N)=O)ccn12
IC50 [4]: < 0.02 µM
IC50 [5]: < 0.02 µM
IC50 [6]: < 0.1 µM

Cc1ccc(C(=O)Nc2ccc(CN3CCN(C)CC3)c(C(F)(F)F)c2)cc1C#Cc1nnc2cc(F)ccn12 [drawing 131]
% T/C [1]: <40%

Cc1ccc(C(=O)Nc2ccc(CN3CCN(C)CC3)c(C(F)(F)F)c2)cc1C#Cc1nnc2cccc(Cl)n12 [drawing 128]
% T/C [1]: <40%

Cc1ccc(C(=O)Nc2ccc(CN3CCN(C)CC3)c(C(F)(F)F)c2)cc1C#Cc1nnc2ccccn12 [drawing 113]
IC50 [4]: < 0.02 µM
IC50 [5]: < 0.02 µM
IC50 [6]: < 0.1 µM
